{"source": "patent US5446049A", "about": "“Azanoradamantanes for treatment of conditions responsive to 5-HT agonists and/or antagonists” (priority 1994, dated 1995)", "key": {"5-HT3 receptor": {"target": "T1, 5-HT3 receptor (Rattus norvegicus, UniProt P35563)", "T1 construct": "Brain cortices were obtained from male rats and a membrane fraction prepared by standard techniques; from tissue; host or cells: rat brain cortex membranes", "T1 sequence (P35563 24-483)": "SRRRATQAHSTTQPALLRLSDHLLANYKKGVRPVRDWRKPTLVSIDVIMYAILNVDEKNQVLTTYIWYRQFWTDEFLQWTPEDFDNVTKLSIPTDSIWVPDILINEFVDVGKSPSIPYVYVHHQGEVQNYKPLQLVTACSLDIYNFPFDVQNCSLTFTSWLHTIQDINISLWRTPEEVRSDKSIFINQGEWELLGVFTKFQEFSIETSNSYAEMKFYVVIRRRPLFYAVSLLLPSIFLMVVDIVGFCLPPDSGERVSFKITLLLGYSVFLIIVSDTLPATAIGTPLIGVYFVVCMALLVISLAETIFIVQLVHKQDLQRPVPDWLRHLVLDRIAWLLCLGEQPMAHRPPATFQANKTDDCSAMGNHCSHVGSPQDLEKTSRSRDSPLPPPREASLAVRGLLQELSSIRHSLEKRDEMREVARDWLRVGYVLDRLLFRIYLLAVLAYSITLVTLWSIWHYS", "test": "5-HT3 radioligand receptor binding assay ([3H]-GR65630, rat brain cortex membranes)", "procedure": "(§1) (Baxter et al., Naunyn Schmied Arch. Pharmacol, 1991, 343, 439). […] One with skill in the art could determine the activity of the compounds of the present invention using the methodology of these assays, described herein, without undue experimentation.\nProcedure: GR65630 binds to the 5-HT3 receptor. Brain cortices were obtained from male rats and a membrane fraction prepared by standard techniques. 0.04 mg of membrane prep was incubated with 0.2 nM [^3 H]-GR65630 for 66 minutes at 22° C. […] Membranes were filtered and washed 3 times and the filters were counted to determine [^3 H]-GR65630 specifically bound. (Kilpatrick G. J., Jones B. J. and Tyers M. B., Identification and Distribution of 5-HT3 Receptors in Rat Brain Using Radioligand Binding Assay, Nature, 330, 746-748 (1987))."}, "5-HT4 receptor [1]": {"target": "T2, 5-HT4 receptor (Rattus norvegicus, UniProt Q62758)", "T2 construct": "The inner tunica muscularis mucosa was mounted under 0.2-0.3 g of tension in a tissue bath; from tissue; host or cells: rat intrathoracic oesophagus, tunica muscularis mucosae", "T2 sequence (Q62758 whole entry)": "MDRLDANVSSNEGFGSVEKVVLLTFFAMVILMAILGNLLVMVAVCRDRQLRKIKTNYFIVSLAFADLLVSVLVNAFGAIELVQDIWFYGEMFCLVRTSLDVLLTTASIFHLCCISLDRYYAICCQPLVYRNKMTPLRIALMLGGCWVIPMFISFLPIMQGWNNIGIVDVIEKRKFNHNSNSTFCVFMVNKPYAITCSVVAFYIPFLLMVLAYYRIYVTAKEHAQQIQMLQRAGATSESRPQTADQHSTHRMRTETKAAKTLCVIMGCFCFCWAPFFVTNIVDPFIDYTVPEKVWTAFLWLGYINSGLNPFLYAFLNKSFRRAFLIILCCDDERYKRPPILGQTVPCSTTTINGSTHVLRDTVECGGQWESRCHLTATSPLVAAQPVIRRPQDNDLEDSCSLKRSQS", "assay_type": "cell-based", "details": "Table I; tissues from 5 rats; carbachol 3 μM; read-out: 5-HT4 Agonism (Rat TMM) In Vitro Assay: EC50 values", "from_the_text": "as §1\nOne 2 cm segment of intrathoracic esophagus proximal to the diaphragm was removed from male rats, weighing approximately 300 gm, and the outer muscle layers removed. The inner tunica muscularis mucosa was mounted under 0.2-0.3 g of tension in a tissue bath containing oxygenated Tyrode's solution at 37° C. […] Following a 30 min equilibrium period, tissues were isometrically contracted with carbachol (3 μM) to obtain a tonic contraction. A stable plateau was obtained within 20 min when test compound was added cumulatively to relax the muscle strip. EC50 values were obtained for each agonist in tissues from 5 rats."}, "myenteric neurons": {"tested_on": "myenteric neurons", "details": "Nemeth and Gullikson; cited from earlier work"}, "5-HT4 receptor [2]": {"tested_on": "5-HT4 receptor", "details": "Dumuis et al 1989; mouse embryonic colliculi neurons; cited from earlier work"}, "5-HT4 receptors": {"tested_on": "5-HT4 receptors", "details": "Craig and Clarke; cited from earlier work"}, "gastric emptying": {"tested_on": "gastric emptying", "details": "cited from earlier work; for gastric emptying rates in vivo: Buchheit et al 1985; for gastric emptying: Gidda et al 1988"}, "[3]": {"tested_on": "5-HT3-mediated Bezold Jarisch reflex", "details": "in vivo; cited from earlier work"}, "[4]": {"tested_on": "guinea pig stomach strips", "details": "cited from earlier work; for guinea pig stomach muscle strip contraction in vitro: Buchheit et al 1985"}, "charcoal meal transit": {"tested_on": "charcoal meal transit", "details": "Kimura et al 1989; cited from earlier work"}, "antroduodenal motility": {"tested_on": "antroduodenal motility", "details": "Van Nueten et al 1989, cited from earlier work"}, "GI transit": {"tested_on": "GI transit", "details": "cited from earlier work"}, "GI tract": {"tested_on": "GI tract", "details": "various animal models; cited from earlier work"}}, "data": [{"smiles": "Cc1nc[nH]c1CCC(=O)c1cn(C)c2ccccc12", "note": "[[^3 H]-GR65630]", "values": [{"measurement": "% Specific Binding", "setting": "5-HT3 receptor; radioligand, non-specific binding with 1 uM ICS 205-930", "result": 70, "unit": "%"}, {"measurement": "Bmax", "setting": "5-HT3 receptor; radioligand, rat brain cortex membranes", "result": 154, "unit": "fmol/mg protein"}]}, {"smiles": "COc1cc(N)c(Cl)cc1C(=O)NC[C@@H]1[C@H]2C[C@H]3C[C@@H]1N(C3)C2", "note": "(relative stereo) [Example 1, 4-amino-5-chloro-N-(hexahydro-2β,6β-methano-1H,7aα-pyrrolizin-1β-ylmethyl)-2-methoxybenzamide]", "values": [{"measurement": "EC50", "setting": "5-HT4 receptor [1]", "result": 0.175, "unit": "µM"}, {"measurement": "Ki", "setting": "5-HT3 receptor; read-out: Ki, effect of compounds on [3H]-GR65630 bound, Table II, 0.2 nM [3H]-GR65630, 66 minutes, 22° C.", "result": 0.0055, "unit": "µM"}]}, {"smiles": "COc1cc(N)c(Cl)cc1C(=O)NC1CCN2CCCC1C2", "note": "(stereo not shown) [BRL-24924]", "values": [{"measurement": "ability to depolarize myenteric neurons versus 5-HT3 antagonism", "setting": "myenteric neurons", "result": "unrelated to their properties of 5-HT3 antagonism"}, {"measurement": "agonist activity at 5-HT4 receptor", "setting": "5-HT4 receptor [2]", "result": "agonist activity"}, {"measurement": "peristaltic reflex evoked, mediated through agonism at 5-HT4 receptors", "setting": "5-HT4 receptors", "result": "mediated through agonism at 5-HT4 receptors"}]}, {"smiles": "CCN(CC)CCNC(=O)c1cc(Cl)c(N)cc1OC", "note": "[metoclopramide]", "values": [{"measurement": "gastric emptying rates in vivo", "setting": "gastric emptying", "result": "increases in gastric emptying rates in vivo"}, {"measurement": "block of the 5-HT3-mediated Bezold Jarisch reflex", "setting": "[3]", "result": "blocks the 5-HT3-mediated Bezold Jarisch reflex"}, {"measurement": "guinea pig stomach muscle strip contraction in vitro", "setting": "[4]", "result": "enhanced guinea pig stomach muscle strip contraction in vitro"}, {"measurement": "electrical-field stimulated contractions in guinea pig stomach strips", "setting": "[4]; Gunning and Naylor 1985", "result": "enhanced electrical-field stimulated contractions in guinea pig stomach strips"}]}, {"smiles": "COc1cc(N)c(Cl)cc1C(=O)NC[C@H]1[C@@H]2C[C@@H]3C[C@H]1N(C3)C2", "note": "[Example 4, 4-amino-5-chloro-N-(hexahydro-2β,6β-methano-1H,7aα-pyrrolizin-1R,1α-ylmethyl)-2-methoxybenzamide]", "values": [{"measurement": "EC50", "setting": "5-HT4 receptor [1]", "result": 0.274, "unit": "µM"}]}, {"smiles": "Cc1nccn1CC1CCc2c(c3ccccc3n2C)C1=O.Cl.O.O", "note": "(stereo not shown) [SN-307]", "values": [{"measurement": "transit of a charcoal meal in mice", "setting": "charcoal meal transit", "result": "enhanced transit of a charcoal meal in mice"}]}, {"smiles": "COc1cc(N)c(Cl)cc1C(=O)NC[C@@H]1[C@H]2C[C@H]3C[C@@H]1N(C3)C2", "note": "[Example 3, 4-amino-5-chloro-N-(hexahydro-2β,6β-methano-1H,7aα-pyrrolizin-1S,1α-ylmethyl)-2-methoxybenzamide]", "values": [{"measurement": "EC50", "setting": "5-HT4 receptor [1]", "result": 0.14, "unit": "µM"}]}, {"smiles": "CN1[C@@H]2CC[C@H]1C[C@@H](OC(=O)c1cc(Cl)cc(Cl)c1)C2", "note": "[MDL 72222]", "values": [{"measurement": "gastric emptying rates in vivo", "setting": "gastric emptying", "result": "increases in gastric emptying rates in vivo"}, {"measurement": "guinea pig stomach muscle strip contraction in vitro", "setting": "[4]", "result": "enhanced guinea pig stomach muscle strip contraction in vitro"}]}, {"smiles": "COc1cc(N)c(Cl)cc1C(=O)NC1CCN(CCCOc2ccc(F)cc2)CC1OC", "note": "(stereo not shown) [Cisapride]", "values": [{"measurement": "ability to depolarize myenteric neurons versus 5-HT3 antagonism", "setting": "myenteric neurons", "result": "unrelated to their properties of 5-HT3 antagonism"}, {"measurement": "agonist activity at 5-HT4 receptor", "setting": "5-HT4 receptor [2]", "result": "agonist activity"}, {"measurement": "antroduodenal motility in dogs", "setting": "antroduodenal motility", "result": "enhanced antroduodenal motility in dogs"}]}, {"smiles": "Cc1nccn1CC1CCc2c(c3ccccc3n2C)C1=O", "note": "(stereo not shown) [GR38032]", "values": [{"measurement": "gastric emptying", "setting": "gastric emptying", "result": "enhanced gastric emptying"}, {"measurement": "GI transit in man", "setting": "GI transit; Gore et al 1990", "result": "failed to accelerate GI transit"}, {"measurement": "colonic transit in man", "setting": "GI transit; Gore et al 1990", "result": "slowed colonic transit in man"}, {"measurement": "small intestinal transit times or mouth-to-cecum transit times", "setting": "GI transit; Talley et al 1989, man", "result": "did not alter small intestinal transit times or mout-to-cecum transit times"}]}, {"smiles": "CN1[C@@H]2CC[C@H]1C[C@@H](OC(=O)c1c[nH]c3ccccc13)C2", "note": "[ICS 205-930]", "values": [{"measurement": "gastric emptying rates in vivo", "setting": "gastric emptying", "result": "increases in gastric emptying rates in vivo"}, {"measurement": "gastric emptying", "setting": "gastric emptying", "result": "enhanced gastric emptying"}, {"measurement": "guinea pig stomach muscle strip contraction in vitro", "setting": "[4]", "result": "enhanced guinea pig stomach muscle strip contraction in vitro"}, {"measurement": "effect on the responses to cisapride when coadministered", "setting": "antroduodenal motility; dogs", "result": "did not affect the responses to cisapride"}]}, {"smiles": "COc1cc(N)c(Cl)cc1C(=O)NC[C@@H]1[C@@H]2C[C@@H]3C[C@H]1N(C3)C2", "note": "(relative stereo) [Example 2, 4-amino-5-chloro-N-(hexahydro-2β,6β-methano-1H,7aα-pyrrolizin-1β-ylmethyl)-2-methoxybenzamide]", "values": [{"measurement": "EC50", "setting": "5-HT4 receptor [1]", "result": 0.415, "unit": "µM"}]}, {"smiles": "NCCc1c[nH]c2ccc(O)cc12", "note": "[Serotonin, 5-hydroxytryptamine]", "values": [{"measurement": "peristalsis in the GI tract", "setting": "GI tract", "result": "promote peristalsis in the GI tract"}, {"measurement": "peristaltic reflex evoked, mediated through agonism at 5-HT4 receptors", "setting": "5-HT4 receptors", "result": "mediated through agonism at 5-HT4 receptors"}]}, {"smiles": "COc1cc(N)c(Cl)cc1C(=O)NC1CN2CCC1CC2", "note": "(stereo not shown) [zacopride]", "values": [{"measurement": "gastric emptying", "setting": "gastric emptying", "result": "enhanced gastric emptying"}]}]}
